Where two headings read alike, the source gives them in different places. Blank lines part the entries; values can stand above or below the molecule they belong to.
Experiments:
[1] = Binding of TCO-protected doxorubicin to beads coated with BSA-tetrazine and doxorubicin release (HPLC)
Procedure: Tetrazine functionalization of a BSA-coated particle has been described in J. Nucl. Med. 2013, 54, 1989-1995. Briefly, a solution of BSA (bovine serum albumin; 0.7 mg) in PBS was mixed with a 10 mg/mL solution of a bis-pyridyl-tetrazine-NHS derivative in DMF (35 μL, 30 eq. with respect to BSA) and the pH was adjusted to 9.0 with 1 M sodium carbonate buffer. The solution (125 μL total) was incubated at room temperature for 30 min then the unreacted tetrazine was removed from the solution by using a Zeba desalting spin column (7 kDa MW cut-off) pre-washed with PBS. UV measurements confirmed the presence of 12 tetrazine moieties per BSA molecule.
The eluate containing BSA-tetrazine in PBS was added to a 350 μL suspension of polystyrene beads (Polybeads, 0.5 μm, Polysciences) in H2O and the resulting suspension was incubated at +4° C. for 1 h on an end-over-end rotating mixer (10 rpm). After incubation, the suspension of beads coated with BSA-tetrazine was centrifuged at 12,000 rpm for 4 min. The supernatant was carefully removed and the pellet was resuspended in 1.5 mL PBS by using a tip sonicator at low power (Sonics VibraCell, 4×5 sec pulses, 40% of power). The centrifuging-resuspension cycle was repeated 2 times, after which the bead pellet was resuspended in 200 μL PBS and reacted with 7 nmol of TCO-protected doxorubicin (TCO-3-Doxorubin, 1 mM in DMSO).
After 5 min incubation at 37° C. in a thermomixer (350 rpm), the beads were removed by centrifugation and the supernatant was analyzed by HPLC on an Agilent Techologies system (1100 series) equipped with a fluorescence detector with λhex=485 nm and λem=590 nm. The sample was loaded on an Eclipse XDB-C18 column (5 μm, 4.6×150 mm^2, Agilent) which was eluted isocratically with 30% (v/v) acetonitrile in H2O containing 0.1% TFA (v/v) at 1 mL/min. HPLC analysis of the supernatant confirmed that ca. 75% of TCO-doxorubicin was bound to the beads.
The bead pellet was resuspended in 1.5 mL PBS and centrifuged twice to eliminate unbound TCO-doxorubicin. Subsequently, the beads were resuspended in 400 μL PBS and incubated at 37° C. At various times, aliquots of the supernatant were analyzed by HPLC. The chromatographic profiles (FIG. 2) show release of free doxorubicin (Rt=6.2 min) from the beads with time (>45% after 3 h; complete within 24 h).

[2] = TCO-doxorubicin with uncoated and unmodified beads (comparison); conditions: same conditions
[3] = Testing the stability of a TCO compound under chemical conditions (HPLC-MS/PDA, GC-MS); format: physicochemical
Procedure: (§1) The feasibility to use the TCO group as a protective group in chemistry was studied by testing the stability of a range of TCO derivatives as model compounds under various conditions, and following the deprotection upon reaction with a tetrazine derivative under these conditions.
Typical Example for Testing the Stability of a TCO Compound
The TCO stock solution (10 μL 25 mM; 2.5*10^−7 mol) was added to a solution of the specific condition (100 μL). The mixture was stirred at the specific condition for a certain amount of time, and then the fate of the TCO compound was monitored by HPLC-MS/PDA analysis and/or GC-MS analysis, and an estimation of its stability was made.
(§2) A) in acetonitrile with 5 equivalents of pyridine per TCO at 20° C.
(§3) B) in acetonitrile with 5 equivalents of DIPEA per TCO at 20° C.
(§4) C) in acetonitrile with 5 equivalents of piperidine per TCO at 20° C.
(§5) D) in acetonitrile with 5 equivalents of n-butylamine per TCO at 20° C.
(§6) E) in acetonitrile with 5 equivalents of 2-mercaptoethanol per TCO at 20° C.
(§7) F) in tetrahydrofuran with 5 equivalents of triphenylphosphine per TCO at 20° C.
(§8) G) in acetonitrile with 5 equivalents of DCC per TCO at 20° C.
(§9) H) in acetonitrile with 5 equivalents of PyBOP per TCO at 20° C.
(§10) I) in acetonitrile with 1 v % of formic acid at 20° C.
(§11) J) in chloroform at 20° C.
(§12) K) in chloroform with 1 v % of formic acid at 20° C.
(§13) L) in chloroform with 1 v % of trifluoroacetic acid at 20° C.
(§14) M) in chloroform with 10 v % of trifluoroacetic acid at 20° C.
(§15) N) in chloroform with 33 v % of trifluoroacetic acid at 20° C.
(§16) Z) in 25% acetonitrile in water at 20° C.

[4] = Testing the feasibility of the deprotection of TCO compounds upon reaction with tetrazine
Procedure: as §1
Typical Example for Testing the Feasibility of the Deprotection
The TCO stock solution (10 μL 25 mM in acetonitrile; 2.5*10^−7 mol) was added to a solution of the specific condition (100 μL). A solution of 3,6-dimethyl-1,2,4,5-tetrazine (8, 20 μL 25 mM in acetonitrile; 5.0*10^−7 mol) was added, and the mixture was stirred at the specific condition for a certain amount of time. The reaction was monitored by HPLC-MS/PDA analysis and/or GC-MS analysis, and the percentage of deprotection was estimated.
as §2, §3, §4, §5, §6, §7, §8, §9, §10, §11, §12, §13, §14, §15, §16

[5] = as above; conditions: 20° C.
[6] = Deprotection of N-TCO protective group (Example 6, 1H-NMR); conditions: chloroform with trifluoroacetic acid; 3,6-dimethyl-1,2,4,5-tetrazine (8); 20° C. for 40 min
Procedure: (N-TCO-6-aminohexyl) phenylcarbamate (5.61 mg; 1.44*10^−5 mol) was dissolved in chloroform (0.6 mL) and trifluoroacetic acid (20 mg; 1.75*10^−4 mol) was added. Subsequently, a solution of 3,6-dimethyl-1,2,4,5-tetrazine (8, 1.90 mg; 1.73*10^−5 mol) in chloroform (0.1 mL) was added. The pink, homogeneous mixture was stirred at 20° C. for 40 min. According to ^1H-NMR, more than 95% was deprotected. The reaction mixture was washed with aqueous potassium carbonate (0.5 mL 0.4 M), dried over sodium sulfate, filtered, and evaporated to dryness. The crude product was purified by preparative RP-HPLC and isolated by lyophilization to yield a white powder (2.31 mg; 68%). ^1H-NMR (DMSO-d6): δ=9.60 (s, 1H), 7.46 (d, 2H), 7.26 (t, 2H), 6.97 (t, 1H), 4.06 (t, 2H), 2.60 (t, 2H), 1.62 (m, 2H), 1.33 (m, 6H) ppm. ^13C-NMR (CDCl3): δ=153.6, 139.2, 128.7, 122.2, 118.1, 73.8, 64.1, 41.5, 33.3, 28.6, 26.1, 25.4 ppm. FT-IR (ATR): v=3343, 2939, 1707, 1542, 1448, 693 cm^−1. LC-MS: m/z=+237.17 [M+H]+(calcd 236.15 for C13H20N2O2).

[7] = biological target: T1, streptavidin beads (Streptomyces avidinii, UniProt P22629); assay: Capture of 125I-Rtx-TCO-biotin with streptavidin beads (gamma counting); format: binding; conditions: 1 hour incubation
T1 construct: purchased Invitrogen
Procedure: Rituximab (Rtx, 100 μg in 200 μL PBS, Roche) was radiolabeled with ^125I (Perkin Elmer) in a Pierce iodination tube (5 min incubation at room temperature) followed by size exclusion (SEC) purification (2 times, 0.5 mL Zeba desalting spin cartridge, 40 kDa MWCO, Pierce). Subsequently, non-radioactive Rtx was added to the solution (making 1 mg total Rtx), the pH was adjusted to 9 with 1 M sodium carbonate buffer and TCO-2-Biotin (3 eq., 5 mg/mL in DMSO) was added. The reaction mixture (200 μL) was incubated for 2 hours at 37° C. (350 rpm), purified once by SEC cartridge and then analyzed by SEC HPLC on an Agilent 1200 system equipped with a Gaby radioactive detector and UV detector and connected to a BioSep-SEC-S-3000 column (300×7.8 mm, 5 μm particles, Phenomenex) which was eluted at 1 mL/min with 0.1 M phosphate 0.15 M NaCl pH 6.8.
Subsequently, various amounts of ^125I-Rtx-TCO-biotin were combined with 1 mg streptavidin beads (Dynabeads MyOne Streptavidin Cl, Invitrogen) in 200 μL PBS and incubated for 1 hour at room temperature on a roller bench, to avoid bead settling. After incubation, the supernatants were removed and the beads were washed extensively with PBS.

[8] = 0.1 M HCOOH buffer, pH = 2.0 for 2 day, 20° C.
[9] = 0.1 M NH3 buffer, pH = 11 for 5 day, 20° C.
[10] = 0.1 M NH4OAc buffer, pH = 7.0 for 5 day, 20° C.
[11] = 0.1 M NH4OAc buffer, pH = 8.0 for 8 day, 20° C.
[12] = 0.1 M NH4OAc buffer, pH = 10.0 for 8 day, 20° C.
[13] = 10% MeCN in H2O at 70° C. for 5 day
[14] = with 5 eq. of DIPEA in MeCN for 16 h, 20° C.
[15] = with 5 eq. of PyBOP in MeCN for 16 h, 20° C.

Molecule: COc1cccc2c1C(=O)c1c(O)c3c(c(O)c1C2=O)C[C@@](O)(C(=O)CO)C[C@@H]3O[C@H]1CC(NC(=O)OCc2ccc(OC(=O)N[C@@H]3CC/C=C/CC[C@@H]3N)cc2)[C@H](O)C(C)O1 (stereo partly drawn) [TCO-3-Doxorubicin]
TCO-doxorubicin bound to the beads ([1]; BSA-tetrazine coated beads, 5 min incubation at 37° C., HPLC of supernatant): ca. 75%
time to complete release of free doxorubicin from the beads ([1]; PBS, 37° C.): ≤ 24 h
release of free doxorubicin from the beads ([1]; PBS, 37° C., after 3 h): > 45%
non-specific proDox adsorption on the bead surface [2]: > 95%

Stability of TCO [3, 8]: stable
Stability of TCO: cyclization [3, 9]: < 5%
Stability of TCO [3, 10]: stable
Stability of TCO [3, 11]: stable
Stability of TCO ([3]; 0.1 M NH4OAc buffer, pH = 9.0 for 8 day, 20° C.): stable
Stability of TCO [3, 12]: stable
Stability of TCO: cyclization [3, 13]: <5%
Stability of TCO ([3]; 10% MeCN in H2O for 5 day, 20° C.): stable
Molecule: COc1cc(COC(=O)NC2CC/C=C/CCC2N)cc(OC)c1OC (stereo not drawn)
Deprotection (%) [4, 8]: 0%
Deprotection (%) [4, 9]: 87%
Deprotection (%) [4, 10]: 0%
Deprotection (%) [4, 11]: 0%
Deprotection (%) [4, 12]: 81%
Deprotection (%) [4, 13]: 50%
Deprotection (%) ([5]; 0.1 M NH4OAc buffer, pH = 9.0 for 8 day): 25%
Deprotection (%) ([5]; 10% MeCN in H2O for 5 day): 0%

Molecule: NC1CC/C=C/CCC1NC(=O)Oc1ccccc1 (stereo not drawn)
half-life ([3]; 0.1 M NH4OAc buffer, pH = 7.0, 20° C., read-out: Stability of TCO, t1/2): 80 h
half-life ([3]; 0.1 M NH4OAc buffer, pH = 8.0, 20° C., read-out: Stability of TCO, t1/2): 17 h
half-life at 2.3 mM ([3]; 0.1 M NH4OAc buffer, pH = 9.0, 20° C., read-out: Stability of TCO, t1/2): 5.3 h
Stability of TCO: cyclization [3, 14]: 6.7%
Stability of TCO: cyclization ([3]; with 5 eq. of HCOOH in MeCN for 16 h, 20° C.): 1.9%
Stability of TCO: cyclization [3, 15]: 5.9%
Stability of TCO: cyclization ([3]; with 5 eq. of pyridine in MeCN for 16 h, 20° C.): 2.6%
Deprotection (%) [4, 14]: 98.8%
Deprotection (%) [4, 15]: 24.4%
Deprotection (%) ([5]; with 5 eq. of HCOOH in MeCN for 16 h): 33.9%
Deprotection (%) ([5]; with 5 eq. of pyridine in MeCN for 16 h): 71.7%

Molecule: O=C(Nc1ccccc1)OCCCCCCNC(=O)OC1/C=C/CCCCC1 (stereo not drawn) [(N-TCO-6-aminohexyl) phenylcarbamate]
deprotected according to 1H-NMR [6]: more than 95%

Molecule: ^125I-Rtx: Rituximab (Rtx, Roche) radiolabeled with 125I
radioactivity bound to streptavidin beads [7]: almost no radioactivity was bound

Source: patent publication US10927139B2, “Chemically cleavable group” (Tagworks Pharmaceuticals B.V., priority 2012, dated 2021)
